Experimental data reported in patent US20230111310A1, “CARBOXYLIC ACID DERIVATIVE-SUBSTITUTED IMINO ARYL COMPOUND, PREPARATION METHOD THEREFOR, HERBICIDAL COMPOSITION AND USE THEREOF” (Qingdao Kingagroot Chemical Compound Co., Ltd., priority 2020, published 2023).

Tests used:
Assay in all cases: Weeding effect in post-emergence stage
Format in all cases: in vivo
Settings in all cases: level of fresh weight growth control rate
[1] = test system: Abutilon theophrasti
Method in brief: (§1)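 Read-out is growth control rate, counted 3 weeks post-spray and averaged over three repeats. Greenhouse plants at the 2-3 leaf stage received spray-tower application at 500, 250, 125, 60, 30, 15 or 7.5 g/ha, with methyl oleate EC (1.5 liter/ha) and Tween 80 added.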

[2] = test system: Alopecurus japonicus
Method in brief: as §1

[3] = test system: Digitaria sanguinalis
Method in brief: as §1

[4] = test system: Eleusine indica
Method in brief: as §1

[5] = test system: Setaria viridis
Method in brief: as §1

[6] = test system: Echinochloa crusgalli
Method in brief: as §1

Row | Compound | Weeding effect in post-emergence stage, Abutilon theophrasti ([1]; Dose 15 g/ha) | Weeding effect in post-emergence stage, Alopecurus japonicus ([2]; Dose 15 g/ha) | Weeding effect in post-emergence stage, Digitaria sanguinalis ([3]; Dose 15 g/ha) | Weeding effect in post-emergence stage, Eleusine indica ([4]; Dose 15 g/ha) | Weeding effect in post-emergence stage, Setaria viridis ([5]; Dose 15 g/ha) | Weeding effect in post-emergence stage, Echinochloa crusgalli ([6]; Dose 15 g/ha) | Weeding effect in post-emergence stage, Abutilon theophrasti ([1]; Dose 60 g/ha) | Weeding effect in post-emergence stage, Alopecurus japonicus ([2]; Dose 60 g/ha) | Weeding effect in post-emergence stage, Digitaria sanguinalis ([3]; Dose 60 g/ha) | Weeding effect in post-emergence stage, Eleusine indica ([4]; Dose 60 g/ha) | Weeding effect in post-emergence stage, Setaria viridis ([5]; Dose 60 g/ha) | Weeding effect in post-emergence stage, Echinochloa crusgalli ([6]; Dose 60 g/ha)
1 | C#CCOC(=O)C(C)O/N=C/c1cc(-n2c(=O)cc(C(F)(F)F)n(C)c2=O)c(F)cc1Cl (racemic) [Compound 212] | 5 (Level 5: growth control rate is above 85%) | 5 (Level 5: growth control rate is above 85%) | 5 (Level 5: growth control rate is above 85%) | 5 (Level 5: growth control rate is above 85%) | 5 (Level 5: growth control rate is above 85%) | 5 (Level 5: growth control rate is above 85%) | – | – | – | – | – | –
2 | CC(O/N=C/c1cc(-n2c(=O)cc(C(F)(F)F)n(C)c2=O)c(F)cc1Cl)C(=O)OC1CCCC1 (racemic) [Compound 214] | 5 (Level 5: growth control rate is above 85%) | 5 (Level 5: growth control rate is above 85%) | 5 (Level 5: growth control rate is above 85%) | 5 (Level 5: growth control rate is above 85%) | 5 (Level 5: growth control rate is above 85%) | 5 (Level 5: growth control rate is above 85%) | – | – | – | – | – | –
3 | CC(O/N=C/c1cc(-n2c(=O)cc(C(F)(F)F)n(C)c2=O)c(F)cc1Cl)C(=O)OCCF (racemic) [Compound 216] | 5 (Level 5: growth control rate is above 85%) | 4 (Level 4: growth control rate is greater than or equal to 60% and less than 85%) | 5 (Level 5: growth control rate is above 85%) | 5 (Level 5: growth control rate is above 85%) | 5 (Level 5: growth control rate is above 85%) | 5 (Level 5: growth control rate is above 85%) | – | – | – | – | – | –
4 | CC(O/N=C/c1cc(-n2c(=O)cc(C(F)(F)F)n(C)c2=O)c(F)cc1Cl)C(=O)OCC(F)F (racemic) [Compound 217] | 5 (Level 5: growth control rate is above 85%) | 5 (Level 5: growth control rate is above 85%) | 5 (Level 5: growth control rate is above 85%) | 5 (Level 5: growth control rate is above 85%) | 5 (Level 5: growth control rate is above 85%) | 5 (Level 5: growth control rate is above 85%) | – | – | – | – | – | –
5 | CC(O/N=C/c1cc(-n2c(=O)cc(C(F)(F)F)n(C)c2=O)c(F)cc1Cl)C(=O)OCC(F)(F)F (racemic) [Compound 218] | 5 (Level 5: growth control rate is above 85%) | 5 (Level 5: growth control rate is above 85%) | 5 (Level 5: growth control rate is above 85%) | 5 (Level 5: growth control rate is above 85%) | 5 (Level 5: growth control rate is above 85%) | 5 (Level 5: growth control rate is above 85%) | – | – | – | – | – | –
6 | CC(O/N=C/c1cc(-n2c(=O)cc(C(F)(F)F)n(C)c2=O)c(F)cc1Cl)C(=O)OCC(C)(F)F (racemic) [Compound 220] | 5 (Level 5: growth control rate is above 85%) | 5 (Level 5: growth control rate is above 85%) | 5 (Level 5: growth control rate is above 85%) | 5 (Level 5: growth control rate is above 85%) | 5 (Level 5: growth control rate is above 85%) | 5 (Level 5: growth control rate is above 85%) | – | – | – | – | – | –
7 | CC(O/N=C/c1cc(-n2c(=O)cc(C(F)(F)F)n(C)c2=O)c(F)cc1Cl)C(=O)OCCC(F)(F)F (racemic) [Compound 221] | 5 (Level 5: growth control rate is above 85%) | 4 (Level 4: growth control rate is greater than or equal to 60% and less than 85%) | 5 (Level 5: growth control rate is above 85%) | 5 (Level 5: growth control rate is above 85%) | 5 (Level 5: growth control rate is above 85%) | 5 (Level 5: growth control rate is above 85%) | – | – | – | – | – | –
8 | CC(O/N=C/c1cc(-n2c(=O)cc(C(F)(F)F)n(C)c2=O)c(F)cc1Cl)C(=O)OC/C=C/Cl (racemic) [Compound 225] | 5 (Level 5: growth control rate is above 85%) | 4 (Level 4: growth control rate is greater than or equal to 60% and less than 85%) | 5 (Level 5: growth control rate is above 85%) | 5 (Level 5: growth control rate is above 85%) | 5 (Level 5: growth control rate is above 85%) | 5 (Level 5: growth control rate is above 85%) | – | – | – | – | – | –
9 | CC(O/N=C/c1cc(-n2c(=O)cc(C(F)(F)F)n(C)c2=O)c(F)cc1Cl)C(=O)OCC#N (racemic) [Compound 226] | 5 (Level 5: growth control rate is above 85%) | 5 (Level 5: growth control rate is above 85%) | 5 (Level 5: growth control rate is above 85%) | 5 (Level 5: growth control rate is above 85%) | 5 (Level 5: growth control rate is above 85%) | 5 (Level 5: growth control rate is above 85%) | – | – | – | – | – | –
10 | CC(O/N=C/c1cc(-n2c(=O)cc(C(F)(F)F)n(C)c2=O)c(F)cc1Cl)C(=O)OCCC#N (racemic) [Compound 227] | 5 (Level 5: growth control rate is above 85%) | 5 (Level 5: growth control rate is above 85%) | 5 (Level 5: growth control rate is above 85%) | 5 (Level 5: growth control rate is above 85%) | 5 (Level 5: growth control rate is above 85%) | 5 (Level 5: growth control rate is above 85%) | – | – | – | – | – | –
11 | CC(O/N=C/c1cc(-n2c(=O)cc(C(F)(F)F)n(C)c2=O)c(F)cc1Cl)C(=O)OCCO (racemic) [Compound 228] | 5 (Level 5: growth control rate is above 85%) | 5 (Level 5: growth control rate is above 85%) | 5 (Level 5: growth control rate is above 85%) | 5 (Level 5: growth control rate is above 85%) | 5 (Level 5: growth control rate is above 85%) | 5 (Level 5: growth control rate is above 85%) | – | – | – | – | – | –
12 | COC(=O)C(C)O/N=C/c1cc(-n2c(=S)cc(C(F)(F)F)n(C)c2=O)c(F)cc1Cl (racemic) [Compound 349] | 5 (Level 5: growth control rate is above 85%) | 5 (Level 5: growth control rate is above 85%) | 5 (Level 5: growth control rate is above 85%) | 5 (Level 5: growth control rate is above 85%) | 5 (Level 5: growth control rate is above 85%) | 5 (Level 5: growth control rate is above 85%) | – | – | – | – | – | –
13 | COC(=O)C(C)O/N=C/c1cc(-n2c(=S)cc(C(F)(F)F)n(C)c2=S)c(F)cc1Cl (racemic) [Compound 351] | – | – | – | – | – | – | 5 (Level 5: growth control rate is above 85%) | 5 (Level 5: growth control rate is above 85%) | 5 (Level 5: growth control rate is above 85%) | 5 (Level 5: growth control rate is above 85%) | 5 (Level 5: growth control rate is above 85%) | 5 (Level 5: growth control rate is above 85%)
